According to patent publication US10414760B2, “Cytochrome P450 inhibitors and uses thereof” (ANGION BIOMEDICA CORP., priority 2016, dated 2019):

Assays:
Type in all cases: biochemical
CYP17 = molecular target: T1, CYP17 (Rattus norvegicus, UniProt P11715); assay: CYP17 inhibition: 17α hydroxylase and C17,20 lyase activity in testis microsomes, ELISA detection; conditions: for IC50: which microsome assay (rat or dog testis) not specified
T1 construct: using rat and dog testis microsomes and ELISA kits from commercial vendors; from tissue; host or cells: rat testis microsomes
T1 sequence (P11715 1-507): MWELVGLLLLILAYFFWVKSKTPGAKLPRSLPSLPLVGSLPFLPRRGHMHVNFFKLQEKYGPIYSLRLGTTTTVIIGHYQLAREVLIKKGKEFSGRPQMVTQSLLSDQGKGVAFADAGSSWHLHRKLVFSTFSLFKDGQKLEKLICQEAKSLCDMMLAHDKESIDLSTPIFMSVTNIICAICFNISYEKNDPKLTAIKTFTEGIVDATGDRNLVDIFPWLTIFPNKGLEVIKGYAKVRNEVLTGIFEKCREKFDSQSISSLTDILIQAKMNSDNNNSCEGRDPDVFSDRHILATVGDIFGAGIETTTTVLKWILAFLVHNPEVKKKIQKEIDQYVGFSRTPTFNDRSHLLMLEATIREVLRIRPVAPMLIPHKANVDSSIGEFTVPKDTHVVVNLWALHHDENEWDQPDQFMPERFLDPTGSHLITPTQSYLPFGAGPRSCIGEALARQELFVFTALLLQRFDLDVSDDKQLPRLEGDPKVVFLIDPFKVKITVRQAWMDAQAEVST
Method: Serum Testosterone and PSA and Tumor Testosterone Analysis. Tumor tissue obtained from mice will be homogenized in phosphate buffer (pH 7.4, 0.1 M) and homogenates centrifuged at 2000 g for 20 min. Testosterone concentrations in the serum and in the clear tissue homogenate supernatant will be determined with the ELISA kit from R&D Systems (Catalog # KGR010). Serum PSA concentrations will be measured using a PSA ELISA kit with a serum dilution according to the manufacturers instructions. • c. Breast cancer. To test the efficacy of compounds embodied herein against breast cancer, nude mice carrying human breast cancer lines that are estrogen receptor and Aromatase positive will be used. Cells will be grown in vitro and 2 million will be inoculated in Matrigel (50:50 volume ratio of cells to Matrigel). Cells will be distributed by s.c. injection at the right and left flanks or at the orthotopic sitest in 6 to 8 week old athymic nude mice (BALB/c strain) or severe combined immunodeficient mice under anesthesia. Animals will be treated with compound for 4 weeks, at which point animals will be sacrificed and collect blood samples and tumor tissue for the determination of serum and tumor estrogen levels. Tumors will be excised and a portion will be fixed in formalin for subsequent histochemical and immuno-histochemical analysis. The remainder will be snap frozen in liquid nitrogen and stored at −80° C. • 12. CYP26 inhibition activity. […] The assay is run in a 100 μL reaction volume and stopped with an equal volume of methanol. […] CYP17 inhibition assay: In vitro assays for CYP17 17α-hydroxylase and C17,20-lyase activity, assays using rat and dog testis microsomes and ELISA kits from commercial vendors for the detection of formed products are employed. […] Assays are also used that determine the activity of 17α-hydroxylase activity using P4 as a substrate and detecting HOP4 as a product (using dog testis microsomes) and the activity of C17,20-lyase by using HOP4 as a substrate and AD as a product (rat testis microsomes). • 14.
CYP17 inhibition. In vitro assays for CYP17 17α hydroxylase and C17,20 lyase activity using rat and dog testis microsomes and ELISA kits from commercial vendors for the detection of formed products were employed. […] Assays were also used that determine the activity of 17α hydroxylase activity using P4 as a substrate and detecting HOP4 as a product (using dog testis microsomes) and the activity of C17,20 lyase by using HOP4 as a substrate and AD as a product (rat testis microsomes).

CYP19 = molecular target: T2, CYP19 (Homo sapiens, UniProt P11511); assay: CYP19 inhibition: commercially available recombinant enzyme and assay kit
T2 construct: purchased BD Gentest 456260
T2 sequence (P11511 1-503): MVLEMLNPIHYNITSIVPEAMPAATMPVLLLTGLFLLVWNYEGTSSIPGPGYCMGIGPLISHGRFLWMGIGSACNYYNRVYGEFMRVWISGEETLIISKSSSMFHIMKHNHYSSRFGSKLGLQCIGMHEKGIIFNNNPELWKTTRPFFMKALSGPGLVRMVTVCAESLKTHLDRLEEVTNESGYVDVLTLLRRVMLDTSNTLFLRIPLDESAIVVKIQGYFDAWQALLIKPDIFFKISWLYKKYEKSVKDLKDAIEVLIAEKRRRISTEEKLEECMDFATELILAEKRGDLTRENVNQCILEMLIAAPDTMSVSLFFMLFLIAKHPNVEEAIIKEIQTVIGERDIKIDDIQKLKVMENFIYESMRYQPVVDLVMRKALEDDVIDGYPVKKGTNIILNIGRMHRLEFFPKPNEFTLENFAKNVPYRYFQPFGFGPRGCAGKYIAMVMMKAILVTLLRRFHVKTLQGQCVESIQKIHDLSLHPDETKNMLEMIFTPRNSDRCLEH
Method: (§1) Serum Testosterone and PSA and Tumor Testosterone Analysis. Tumor tissue obtained from mice will be homogenized in phosphate buffer (pH 7.4, 0.1 M) and homogenates centrifuged at 2000 g for 20 min. Testosterone concentrations in the serum and in the clear tissue homogenate supernatant will be determined with the ELISA kit from R&D Systems (Catalog # KGR010). Serum PSA concentrations will be measured using a PSA ELISA kit with a serum dilution according to the manufacturers instructions. • c. Breast cancer. To test the efficacy of compounds embodied herein against breast cancer, nude mice carrying human breast cancer lines that are estrogen receptor and Aromatase positive will be used. Cells will be grown in vitro and 2 million will be inoculated in Matrigel (50:50 volume ratio of cells to Matrigel). Cells will be distributed by s.c. injection at the right and left flanks or at the orthotopic sitest in 6 to 8 week old athymic nude mice (BALB/c strain) or severe combined immunodeficient mice under anesthesia. Animals will be treated with compound for 4 weeks, at which point animals will be sacrificed and collect blood samples and tumor tissue for the determination of serum and tumor estrogen levels. Tumors will be excised and a portion will be fixed in formalin for subsequent histochemical and immuno-histochemical analysis. The remainder will be snap frozen in liquid nitrogen and stored at −80° C. • 12. CYP26 inhibition activity. A substrate depletion assay for ATRA metabolism in mouse microsomes is used. […] The assay is run in a 100 μL reaction volume and stopped with an equal volume of methanol. […] CYP17 inhibition assay: In vitro assays for CYP17 17α-hydroxylase and C17,20-lyase activity, assays using rat and dog testis microsomes and ELISA kits from commercial vendors for the detection of formed products are employed. Incubation of rat testis microsomes with the substrate progesterone (P4) results, through the CYP17 17α-hydroxylase and C17,20-lyase activities, in a marked production of androstenedione (AD) in a time and enzyme-concentration dependent manner. […] In another control, microsomes isolated from rat livers, which are known to express very little or no CYP17, are shown to be devoid of this activity. Assays are also used that determine the activity of 17α-hydroxylase activity using P4 as a substrate and detecting HOP4 as a product (using dog testis microsomes) and the activity of C17,20-lyase by using HOP4 as a substrate and AD as a product (rat testis microsomes). • 14. CYP19 inhibition assay: For in vitro assays of CYP19 aromatase activity, commercially available CYP19 enzyme preparations (e.g. BD Gentest Supersomes Catalog #456260) and assay kits (e.g. BD Gentest Catalog #459520) are employed according to the manufacturers instructions.
Selectivity for other P450 enzymes. To assess the selectivity of compounds embodied herein, activity was evaluated first against CYP3A4 and CYP19 using commercially available recombinant enzymes and assay kits. To calculate a selectivity factor, the IC50 for a particular P450 enzyme was divided by the IC50 in the CYP17 combination assay.

CYP26 = molecular target: T3, CYP26 (Mus musculus, UniProt O55127); assay: CYP26 inhibition: substrate depletion assay for ATRA metabolism in mouse microsomes
T3 construct: tissue Xenotech; host or cells: liver microsomes of ATRA-treated mice
T3 sequence (O55127 1-497): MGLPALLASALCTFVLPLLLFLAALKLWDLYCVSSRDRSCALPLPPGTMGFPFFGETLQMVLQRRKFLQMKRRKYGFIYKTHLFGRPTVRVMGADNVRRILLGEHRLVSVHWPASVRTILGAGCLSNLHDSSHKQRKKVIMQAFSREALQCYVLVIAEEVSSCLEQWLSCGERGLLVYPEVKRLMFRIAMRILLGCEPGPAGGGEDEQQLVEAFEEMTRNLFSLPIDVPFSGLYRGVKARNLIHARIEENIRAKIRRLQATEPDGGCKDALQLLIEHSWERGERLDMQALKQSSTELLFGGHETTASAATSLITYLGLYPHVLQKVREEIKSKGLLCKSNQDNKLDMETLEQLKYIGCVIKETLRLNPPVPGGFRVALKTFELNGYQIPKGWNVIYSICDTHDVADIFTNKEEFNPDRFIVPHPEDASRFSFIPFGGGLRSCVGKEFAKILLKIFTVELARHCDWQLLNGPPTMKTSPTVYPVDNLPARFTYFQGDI
Method: as §1
CYP26 inhibition. […] The assay was run in a 100 μL reaction volume and stopped with an equal volume of methanol. […] Other compounds of formula (I) are similarly potent, for example with an IC50 of 1.6 nM.

| Structure (SMILES) | IC50 (CYP17) [µM] | IC50 (CYP19) [µM] | IC50 (CYP26) [µM] | Inhibition of androstenedione (AD) production from progesterone (P4) (CYP17; rat testis microsomes, 17α hydroxylase and C17,20 lyase activities) |
| --- | --- | --- | --- | --- |
| CCC(C(c1ccc2nc(NC(C)=O)sc2c1)n1ccnc1)N(C)CC (centres unmarked) [Example 9, N-(6-(2-(Ethyl(methyl)amino)-1-(1H-imidazol-1-yl)butyl)benzo[d]thiazol-2-yl)acetamide] | < 5 | < 1 |  |  |
| CC(=O)O[C@H]1CC[C@@]2(C)C(=CC[C@@H]3[C@@H]2CC[C@]2(C)C(c4cccnc4)=CC[C@@H]32)C1 [abiraterone acetate, reference compound] |  |  |  | completely inhibited |
| CCC(C(c1ccc2nc(Cl)sc2c1)n1ccnc1)N(C)CC (centres unmarked) [Example 10, 1-(2-Chlorobenzo[d]thiazol-6-yl)-N-ethyl-1-(1H-imidazol-1-yl)-N-methylbutan-2-amine] | < 5 | < 1 |  |  |
| CCC(C(c1ccc2ncsc2c1)n1ccnc1)N(C)C (centres unmarked) [Example 15, 1-(Benzo[d]thiazol-6-yl)-1-(1H-imidazol-1-yl)-N,N-dimethylbutan-2-amine] | < 5 | < 1 |  |  |
| CCC(C(c1ccc2nc(C(=O)OC)sc2c1)n1ccnc1)N(C)C (centres unmarked) [Example 12, Methyl 6-(2-(dimethylamino)-1-(1H-imidazol-1-yl)butyl)benzo[d]thiazole-2-carboxylate] | < 5 | < 1 |  |  |
| CCC(CC)C(c1ccc2nc(N)sc2c1)n1ccnc1 (centres unmarked) [Example 27, 6-(2-Ethyl-1-(1H-imidazol-1-yl)butyl)benzo[d]thiazol-2-amine] | < 5 | < 1 |  |  |
| CCC(C(c1ccc2nc(NC(N)=O)sc2c1)n1ccnc1)N(C)C (centres unmarked) [Example 2, 1-(6-(2-(Dimethylamino)-1-(1H-imidazol-1-yl)butyl)benzo[d]thiazol-2-yl)urea] | < 5 | < 1 |  |  |
| CCC(C(c1ccc2nc(C(=N)OC)sc2c1)n1ccnc1)N(C)C (centres unmarked) [Example 13, Methyl 6-(2-(dimethylamino)-1-(1H-imidazol-1-yl)butyl)benzo[d]thiazole-2-carbimidate] | < 5 | < 1 |  |  |
| CCC(CC)C(c1ccc2nc(Br)sc2c1)n1ccnc1 (centres unmarked) [Example 28, 2-bromo-6-(2-ethyl-1-(1H-imidazol-1-yl)butyl)benzo[d]thiazole] | < 5 | < 1 |  |  |
| CCC(CC)C(c1ccc2nc(-c3cccc(C(=O)O)c3)sc2c1)n1ccnc1 (centres unmarked) [3-(6-(2-Ethyl-1-(1H-imidazol-1-yl)butyl)benzo[d]thiazol-2-yl)benzoic acid] |  |  | < 1 |  |

Further lines, with some results ahead:

| IC50 (CYP17) [µM] | IC50 (CYP19) [µM] | IC50 (CYP26) [µM] | Structure (SMILES) | Inhibition of androstenedione (AD) production from progesterone (P4) (CYP17; rat testis microsomes, 17α hydroxylase and C17,20 lyase activities) |
| --- | --- | --- | --- | --- |
| < 5 | < 1 |  | CCC(C(c1ccc2nc(Br)sc2c1)n1ccnc1)N(C)CC (centres unmarked) [Example 36, 1-(2-Bromobenzo[d]thiazol-6-yl)-N-ethyl-1-(1H-imidazol-1-yl)-N-methylbutan-2-amine] |  |
| < 5 | < 1 |  | CCC(C(c1ccc2nc(N)sc2c1)n1ccnc1)N(C)CC (centres unmarked) [Example 32, 6-(2-(Ethyl(methyl)amino)-1-(1H-imidazol-1-yl)butyl)benzo[d]thiazol-2-amine] |  |
|  |  | < 1 | CCC(CC)C(c1ccc2nc(-c3ccc(C(=O)O)cc3)sc2c1)n1ccnc1 (centres unmarked) [Example 30, 4-(6-(2-Ethyl-1-(1H-imidazol-1-yl)butyl)benzo[d]thiazol-2-yl)benzoic acid] |  |
|  |  | < 1 | CCC(C(c1ccc2nc(-c3cccc(-c4nn[nH]n4)c3)sc2c1)n1ccnc1)N(C)C (centres unmarked) [Example 71, 1-(2-(3-(2H-Tetrazol-5-yl)phenyl)benzo[d]thiazol-6-yl)-1-(1H-imidazol-1-yl)-N,N-dimethylbutan-2-amine] |  |
|  |  | < 1 | CCC(C(c1ccc2nc(NC(=O)C3CC4CCC3C4)sc2c1)n1ccnc1)N(C)C (centres unmarked) [Example 52, N-(6-(-2-(dimethylamino)-1-(1H-imidazol-1-yl)butyl)benzo[d]thiazol-2-yl)bicyclo[2.2.1]heptane-2-carboxamide] |  |
|  |  | < 1 | CCC(CC)C(c1ccc2nc(-c3ccc(Cl)c(C(=O)OC)c3)sc2c1)n1ccnc1 (centres unmarked) [Example 73, Methyl 2-chloro-5-(6-(2-ethyl-1-(1H-imidazol-1-yl)butyl)benzo[d]thiazol-2-yl)benzoate] |  |
